# ChEMBL document CHEMBL1130432, “Neuritogenic effect of epolactaene derivatives on human neuroblastoma cells which lack high-affinity nerve growth factor receptors” (1997)
# What was measured:
# Type in all cases: functional, Homo sapiens
# SH-SY5Y [1] = test: Ability to induce neurite outgrowth in SH-SY5Y cells measured as percentage of neurite bearing cells/total cells at 17.8 uM; Range is 20-40%
# SH-SY5Y [2] = test: Ability to induce neurite outgrowth in SH-SY5Y cells measured as percentage of neurite bearing cells/total cells at 98.8 uM; Range is 5-20%
# SH-SY5Y [3] = test: Ability to induce neurite outgrowth in SH-SY5Y cells measured as percentage of neurite bearing cells/total cells at 29.5 uM; Range is 5-20%
# SH-SY5Y [4] = test: Ability to induce neurite outgrowth in SH-SY5Y cells measured as percentage of neurite bearing cells/total cells at 25.4 uM; Range is 5-20%
# SH-SY5Y [5] = test: Ability to induce neurite outgrowth in SH-SY5Y cells measured as percentage of neurite bearing cells/total cells at 59.4 uM
# SH-SY5Y [6] = test: Ability to induce neurite outgrowth in SH-SY5Y cells measured as percentage of neurite bearing cells/total cells at 118.8 uM; Range is 5-20%
structure (smiles),measurement,setting,value
CCCCCCCCN1C(=O)C(C(C)=O)=C(C)C1(C)O (stereo unspecified),Neurite bearing cells/total cells,SH-SY5Y [1],40%
CCCCCCOC1(C)NC(=O)C(C(C)=O)=C1C (stereo unspecified),Neurite bearing cells/total cells,SH-SY5Y [2],20%
CCCCCCCCCCCCN1C(=O)C(C(C)=O)=C(C)C1(C)O (stereo unspecified),Neurite bearing cells/total cells,SH-SY5Y [3],20%
CCCCCCCCCCCCCCCCN1C(=O)C(C(C)=O)=C(C)C1(C)O (stereo unspecified),Neurite bearing cells/total cells,SH-SY5Y [4],20%
CCCCCCCCCCCCCCCCCCOC1(C)NC(=O)C(C(C)=O)=C1C (stereo unspecified),Neurite bearing cells/total cells,SH-SY5Y [5],>40%
CCCCCCCCCCCCCCCCCCN1C(=O)C(C(C)=O)=C(C)C1(C)O (stereo unspecified),Neurite bearing cells/total cells,SH-SY5Y [6],20%
